Experiment: Phase 1 pharmacokinetic evaluation of nalmefene IN with and without Intravail vs IM injection

In the case of C=C1CC[C@@]2(O)[C@H]3Cc4ccc(O)c5c4[C@@]2(CCN3CC2CC2)[C@H]1O5 [Nalmefene, 17-cyclopropylmethyl-4,5α-epoxy-6-methylenemorphinan-3,14-diol], the “AUCextrap, mean” value (1.5 mg IM) is reported as 22.6%, the “Cmax/D, mean” value (1.5 mg IM) is reported as 1.12 ng/mL/mg and the “Lambda z, mean” value (1.5 mg IM) is reported as 0.094 h⁻¹. For the same compound, the “AUCextrap, mean” value (1.5 mg IN) was 30.6%, the “Cmax/D, mean” value (1.5 mg IN) was 0.646 ng/mL/mg and the “Half-life, mean” value (1.5 mg IN) was 6.74 h. The “Lambda z, mean” value (1.5 mg IN) was 0.131 h⁻¹, the “AUCextrap, mean” value (3 mg IN) was 17.9% and the “Cmax/D, mean” value (3 mg IN) was 0.731 ng/mL/mg. The “Lambda z, mean” value (3 mg IN) was 0.101 h⁻¹, the “AUCextrap, mean” value (3 mg plus […] Intravail IN) was 14.6% and the “Cmax/D, mean” value (3 mg plus […] Intravail IN) was 1.65 ng/mL/mg. For the same compound, the “Lambda z, mean” value (3 mg plus […] Intravail IN) was 0.117 h⁻¹, the concentration at 0 h (human, in vivo, 1.5 mg) was 0 ng/mL and the concentration at 0.04 h (human, in vivo, 1.5 mg) was 0 ng/mL. For the same compound, the concentration at 0.08 h (human, in vivo, 1.5 mg) was 0 ng/mL, the concentration at 30 h (human, in vivo, 1.5 mg) was 0 ng/mL and the concentration at 36 h (human, in vivo, 1.5 mg) was 0 ng/mL. It also gave a concentration at 48 h (human, in vivo, 1.5 mg) of 0 ng/mL, a concentration at 60 h (human, in vivo, 1.5 mg) of 0 ng/mL and a concentration at 72 h (human, in vivo, 1.5 mg) of 0 ng/mL. It also gave a concentration at 0 h (human, in vivo, 3 mg) of 0 ng/mL, a concentration at 0.04 h (human, in vivo, 3 mg) of 0 ng/mL and a concentration at 0.08 h (human, in vivo, 3 mg) of 0 ng/mL. For the same compound, the concentration at 48 h (human, in vivo, 3 mg) was 0 ng/mL, the concentration at 60 h (human, in vivo, 3 mg) was 0 ng/mL and the concentration at 72 h (human, in vivo, 3 mg) was 0 ng/mL.
